Test results from patent publication US10392368B2, “Pyrazolo and triazolo bicyclic compounds as JAK kinase inhibitors” (THERAVANCE BIOPHARMA R&D IP, LLC, priority 2017, dated 2019).
Where two headings read alike, the source gives them in different places.

Columns and labels:
JAK1 = molecular target: T1, JAK1 (Homo sapiens, UniProt P23458); assay: Biochemical JAK1 kinase assay (LanthaScreen); details: for Ki: read-out: JAK 1 (pKi) (converted)
T1 construct: GST; purchased Life Technologies
Method: (§1) A panel of four LanthaScreen JAK biochemical assays (JAK1, 2, 3 and Tyk2) were carried in a common kinase reaction buffer (50 mM HEPES, pH 7.5, 0.01% Brij-35, 10 mM MgCl2, and 1 mM EGTA). Recombinant GST-tagged JAK enzymes and a GFP-tagged STAT1 peptide substrate were obtained from Life Technologies.
(§2) Serially or discretely diluted compounds were pre-incubated with each of the four JAK enzymes and the substrate in white 384-well microplates (Corning) at ambient temperature for 1 h. ATP was subsequently added to initiate the kinase reactions in 10 μL total volume, with 1% DMSO. […] Kinase reactions were allowed to proceed for 1 hour at ambient temperature before a 10 μL preparation of EDTA (10 mM final concentration) and Tb-anti-pSTAT1 (pTyr701) antibody (Life Technologies, 2 nM final concentration) in TR-FRET dilution buffer (Life Technologies) was added. The plates were allowed to incubate at ambient temperature for 1 h before being read on the EnVision reader (Perkin Elmer). Emission ratio signals (520 nm/495 nm) were recorded and utilized to calculate the percent inhibition values based on DMSO and background controls.
(§3) For dose-response analysis, percent inhibition data were plotted vs. compound concentrations, and IC50 values were determined from a 4-parameter robust fit model with the Prism software (GraphPad Software). Results were expressed as pIC50 (negative logarithm of IC50) and subsequently converted to pKi (negative logarithm of dissociation constant, Ki) using the Cheng-Prusoff equation.

JAK3 = molecular target: T2, JAK3 (Homo sapiens, UniProt P52333); assay: Biochemical JAK3 kinase assay (LanthaScreen); parameters: GST; purchased Life Technologies; details: for Ki: read-out: JAK 3 (pKi) (converted)
T2 sequence (P52333 1-1124): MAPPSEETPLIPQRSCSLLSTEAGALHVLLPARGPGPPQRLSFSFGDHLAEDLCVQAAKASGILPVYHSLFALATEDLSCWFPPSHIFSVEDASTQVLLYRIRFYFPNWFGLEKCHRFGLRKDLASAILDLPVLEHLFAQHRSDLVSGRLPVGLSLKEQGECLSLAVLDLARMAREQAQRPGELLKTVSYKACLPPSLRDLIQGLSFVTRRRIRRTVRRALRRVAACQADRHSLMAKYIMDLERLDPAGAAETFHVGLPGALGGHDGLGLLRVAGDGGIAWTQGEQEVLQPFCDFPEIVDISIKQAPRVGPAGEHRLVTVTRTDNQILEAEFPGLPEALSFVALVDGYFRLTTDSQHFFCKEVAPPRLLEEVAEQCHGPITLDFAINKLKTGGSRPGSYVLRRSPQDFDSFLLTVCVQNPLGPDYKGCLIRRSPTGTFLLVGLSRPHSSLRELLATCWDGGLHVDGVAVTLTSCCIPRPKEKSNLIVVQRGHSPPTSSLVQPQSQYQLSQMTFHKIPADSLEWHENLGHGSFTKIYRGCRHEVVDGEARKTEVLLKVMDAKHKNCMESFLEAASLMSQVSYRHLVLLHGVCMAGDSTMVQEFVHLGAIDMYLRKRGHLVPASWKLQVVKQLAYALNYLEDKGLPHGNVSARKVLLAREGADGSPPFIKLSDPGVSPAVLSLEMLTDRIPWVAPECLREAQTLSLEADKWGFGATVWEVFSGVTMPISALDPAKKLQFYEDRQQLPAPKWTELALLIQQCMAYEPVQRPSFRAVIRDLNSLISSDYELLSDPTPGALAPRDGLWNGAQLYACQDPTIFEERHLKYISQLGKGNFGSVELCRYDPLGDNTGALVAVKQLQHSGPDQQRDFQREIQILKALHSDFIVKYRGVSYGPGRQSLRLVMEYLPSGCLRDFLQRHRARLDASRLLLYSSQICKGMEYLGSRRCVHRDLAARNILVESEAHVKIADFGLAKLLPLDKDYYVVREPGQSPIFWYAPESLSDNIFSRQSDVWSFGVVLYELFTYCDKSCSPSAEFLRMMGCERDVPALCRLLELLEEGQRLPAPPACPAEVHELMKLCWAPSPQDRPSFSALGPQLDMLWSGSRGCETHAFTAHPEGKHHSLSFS
Method: as §1, §2, §3

[1] = tested on: IL-2 stimulated pSTAT5 in Tall-1 T cells; assay: Cellular JAK3 potency assay: inhibition of IL-2 stimulated pSTAT5 in Tall-1 T cells; type: cell-based, human; details: for IC50: Homo sapiens, read-out: Tall-1 (pIC50) (converted); for Tall-1 (pIC50): IL-2 stimulated pSTAT5 in Tall-1 T cells
Method: The potency of test compounds for inhibition of interleukin-2 (IL-2) stimulated STAT5 phosphorylation was measured in the Tall-1 human T cell line (DSMZ) using AlphaLisa. Because IL-2 signals through JAK3, this assay provides a measure of JAK3 cellular potency.
Compounds were serially diluted in DMSO and dispensed acoustically to empty wells. Assay media (phenol red-free DMEM (Life Technologies) supplemented with 10% FBS (ATCC)) was dispensed (4 μL/well) and plates shaken at 900 rpm for 10 mins. Cells were seeded at 45,000 cells/well in assay media (4 μL/well), and incubated at 37° C., 5% CO2 for 1 hour, followed by the addition of IL-2 (R&D Systems; final concentration 300 ng/ml) in pre-warmed assay media (4 μL) for 30 minutes. After cytokine stimulation, cells were lysed with 6 ul of 3× AlphaLisa Lysis Buffer (PerkinElmer) containing 1× PhosStop and Complete tablets (Roche). The lysate was shaken at 900 rpm for 10 minutes at room temperature (RT). Phosphorylated STAT5 was measured via the pSTAT5 AlphaLisa kit (PerkinElmer). Freshly prepared acceptor bead mixture was dispensed onto lysate (5 μL) under green filtered <100 lux light. Plates were shaken at 900 rpm for 2 mins, briefly spun down, and incubated for 2 hrs at RT in the dark. Donor beads were dispensed (5 μL) under green filtered <100 lux light. Plates were shaken at 900 rpm for 2 minutes, briefly spun down, and incubated overnight at RT in the dark.
To determine the inhibitory potency of test compounds in response to IL-2, the average emission intensity of beads bound to pSTAT5 was measured in a human T cell line. IC50 values were determined from analysis of the inhibition curves of signal intensity versus compound concentration. Data are expressed as pIC50 (negative decadic logarithm IC50) values (mean±standard deviation).

[2] = selectivity: difference of pKi JAK3 and pKi JAK1
[3] = TALL-1, IL-2 stimulated pSTAT5 in Tall-1 T cells

T1 sequence (P23458 whole entry): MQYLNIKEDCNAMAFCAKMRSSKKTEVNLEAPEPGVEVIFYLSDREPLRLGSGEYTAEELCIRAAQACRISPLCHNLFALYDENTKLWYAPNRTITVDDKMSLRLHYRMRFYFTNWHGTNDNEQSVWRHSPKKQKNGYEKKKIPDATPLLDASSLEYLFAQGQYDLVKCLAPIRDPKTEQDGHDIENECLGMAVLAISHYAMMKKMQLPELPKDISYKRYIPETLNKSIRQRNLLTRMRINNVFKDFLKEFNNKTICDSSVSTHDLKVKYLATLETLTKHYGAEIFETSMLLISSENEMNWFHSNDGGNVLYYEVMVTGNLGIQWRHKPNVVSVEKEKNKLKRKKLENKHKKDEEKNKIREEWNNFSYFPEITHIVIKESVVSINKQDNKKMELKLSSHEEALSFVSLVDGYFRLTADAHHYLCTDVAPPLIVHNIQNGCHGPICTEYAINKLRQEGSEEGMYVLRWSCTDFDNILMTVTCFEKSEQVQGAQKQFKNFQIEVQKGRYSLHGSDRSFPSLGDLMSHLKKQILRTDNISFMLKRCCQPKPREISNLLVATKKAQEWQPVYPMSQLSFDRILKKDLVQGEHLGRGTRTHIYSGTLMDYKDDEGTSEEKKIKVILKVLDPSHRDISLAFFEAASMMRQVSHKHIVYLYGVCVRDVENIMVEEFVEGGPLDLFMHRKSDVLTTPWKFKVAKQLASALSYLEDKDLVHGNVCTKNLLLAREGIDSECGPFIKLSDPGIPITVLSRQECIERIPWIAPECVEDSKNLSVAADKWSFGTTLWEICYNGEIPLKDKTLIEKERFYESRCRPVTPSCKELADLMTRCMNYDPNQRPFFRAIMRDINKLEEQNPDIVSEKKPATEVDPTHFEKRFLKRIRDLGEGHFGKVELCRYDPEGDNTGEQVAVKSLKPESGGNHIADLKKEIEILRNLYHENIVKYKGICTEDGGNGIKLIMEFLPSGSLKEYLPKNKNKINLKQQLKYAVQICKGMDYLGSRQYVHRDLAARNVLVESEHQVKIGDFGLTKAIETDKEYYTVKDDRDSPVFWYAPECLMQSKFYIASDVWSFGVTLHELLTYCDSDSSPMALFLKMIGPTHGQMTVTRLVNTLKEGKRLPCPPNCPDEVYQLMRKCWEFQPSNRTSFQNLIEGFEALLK

| SMILES | Ki (JAK1) [nM] | Ki (JAK3) [nM] | JAK3 (pKi)-JAK1 (pKi) (JAK3; [2]) | IC50 [1, 3] [nM] | JAK 1 (pKi) (JAK1) | JAK 3 (pKi) (JAK3) | Tall-1 (pIC50) [1] | JAK3 (pKi)-JAK1 (pKi) (JAK3; selectivity JAK3 over JAK1, difference of pKi) | IC50 ([1]; TALL-1, IL-2 stimulated pSTAT5, Tall-1 T cells) [nM] |
| --- | --- | --- | --- | --- | --- | --- | --- | --- | --- |
| CN(C)C/C=C/C(=O)N1CC[C@H](Oc2nc(-c3ccc(O)c(F)c3)cc3[nH]ncc23)C1 [Compound 1-28] | > 100 | 0.1 to 1 | B (a value of 2.3 to 3) | 200 to 1000 | – | – | – | – | – |
| C=CC(=O)N1CC[C@H](Oc2cc(-c3cc(F)c(O)cc3F)cc3[nH]nc(C)c23)C1 [Compound 1-30] | 10 to 100 | < 0.1 | B (a value of 2.3 to 3) | 31.6 to 200 | – | – | – | – | – |
| C=CC(=O)N1CC[C@H](Oc2cc(-c3ccc(O)c(Cl)c3)nc3[nH]nc(C)c23)C1 [Compound 1-32] | > 100 | 0.1 to 1 | A (a value of 3 or above) | 200 to 1000 | – | – | – | – | – |
| C=CC(=O)N1CC[C@H](Oc2nc(-c3ccc(O)c(Cl)c3)cc3[nH]nc(C)c23)C1 [Compound 1-35] | 10 to 100 | < 0.1 | A (a value of 3 or above) | < 31.6 | – | – | – | – | – |
| C=CC(=O)N1CC[C@H](Oc2nc(-c3ccc(O)c(Cl)c3)nc3[nH]nc(C)c23)C1 [Compound 1-37] | > 100 | 0.1 to 1 | A (a value of 3 or above) | 200 to 1000 | – | – | – | – | – |
| C=CC(=O)N1CC[C@H](Oc2cc(-c3ccc(O)cc3)cc3[nH]nc(SC)c23)C1 [Compound 1-39] | > 100 | 0.1 to 1 | A (a value of 3 or above) | 31.6 to 200 | – | – | – | – | – |
| C=CC(=O)N1CC[C@H](Oc2cc(-c3ccc(O)cc3)cc3[nH]nc(N(C)C)c23)C1 [Compound 1-42] | > 100 | 0.1 to 1 | A (a value of 3 or above) | 200 to 1000 | – | – | – | – | – |
| C=CC(=O)N1CC[C@H](Oc2cc(-c3ccc(O)cc3)cc3[nH]nc(C(F)(F)F)c23)C1 [Compound 1-43] | > 100 | < 0.1 | A (a value of 3 or above) | < 31.6 | – | – | – | – | – |
| CN(C)C/C=C/C(=O)N1CC[C@H](Oc2cc(-c3ccc(O)cc3)cc3[nH]nc(Cl)c23)C1 [Compound 1-48] | – | – | B (a value of 2.3 to 3) | – | E (a pKi value of 7 or below (Ki of 100 nM or above)) | C (a pKi value between 8 and 9 (Ki between 10 nM and 1 nM)) | B (a pIC50 value between 6.7 (included) and 7.5 (IC50 between 200 nM and 32 nM)) | – | – |
| CN(C)C/C=C/C(=O)N1CC[C@H](COc2cc(-c3ccc(O)cc3)cc3[nH]ncc23)C1 [Compound 2-1] | – | – | B (a value of 2.3 to 3) | – | D (a pKi value between 7 and 8 (Ki between 100 nM and 10 nM)) | A (a pKi value≥10 (Ki≤0.1 nM)) | C (a pIC50 value between 6 and 6.7 (IC50 between 1 μM and 200 nM)) | – | – |
| CN(C)C/C=C/C(=O)N1CCC(C)(Oc2cc(-c3ccc(O)cc3)cc3[nH]ncc23)CC1 [Compound 6-9] | – | – | – | – | – | – | – | A (a value of 3 or above) | 31.6 to 200 |
